# Results from PMC4279406, “Simultaneous targeting of PI3Kδ and a PI3Kδ-dependent MEK1/2-Erk1/2 pathway for therapy in pediatric B-cell acute lymphoblastic leukemia” (Oncotarget, 2014).
# Assays:
# PI3KC2α = biological target: T1, PI3KC2α (Homo sapiens, UniProt O00443); assay: Kinase Profiler lipid kinase relative activity; type: biochemical; conditions: X-370 10 μM, compared to DMSO control
# T1 construct: purchased Millipore (Kinase Profiler Services, United Kingdom)
# Experimental: (§1) Figure 1 Structure of X-370 and its inhibitory activity against lipid kinases (A) Chemical structure of X-370. (B) X-370 docked to the crystal structure of PI3Kδ. The model was generated based on the co-crystal structure of PI3Kδ and ZSTK474 (PDB ID: 2WXL). (C) IC50 of X-370 against PI3Kδ increased along with ATP concentration. […] Data was obtained from Kinase Profiler Services (Millipore, United Kingdom). Briefly, X-370 was solved in DMSO at a concentration of 10 mM, 10-point kinase inhibitory activity was measured over concentrations in a half-log dilution series started at 1000 nM with ATP at a concentration consistent with Km of each isoform of class I PI3K and IC50s were calculated. Relative kinase activity in the presence of 10 μM X-370 compared to DMSO control was measured for the rest of lipid kinases. TEXT PRINTED IN THE PICTURE: (D) X-370: IC50 (nM): 7 (Isoform: PI3Kδ); IC50 (nM): 433 (Isoform: PI3Kα); IC50 (nM): >1,000 (Isoform: PI3Kγ); IC50 (nM): >1,000 (Isoform: PI3Kβ); Relative Activity (%) X-370 (10 μM): 55 (Lipid Kinases: PI3KC2α); Relative Activity (%) X-370 (10 μM): 63 (Lipid Kinases: PI3KC2γ); Relative Activity (%) X-370 (10 μM): 105 (Lipid Kinases: PIP4K2α); Relative Activity (%) X-370 (10 μM): 100 (Lipid Kinases: PIP5K1α); Relative Activity (%) X-370 (10 μM): 103 (Lipid Kinases: PIP5K1γ) DOUBTS OF THE COPYIST ABOUT THIS PICTURE: Panel D, left table (Isoform / IC50): no substance label is printed in this table; assigned to X-370, the only label printed in the panel (head of the right table)
# (§2) In vitro kinase profile assays were analyzed by the Kinase Profiler Service (Millipore, United Kingdom) following its guidelines. A GST-tagged human p110δ and regulatory full-length p85 were co-expressed in insect cell Sf9. Recombinant protein was extracted by affinity purification. The PI3K kinase activity was determined in the increasing concentration of ATP and X-370 with PI3-Kinase HTRF™ Assay kit (Millipore) as described previously.
# PI3KC2γ = biological target: T2, PI3KC2γ (Homo sapiens, UniProt O75747); assay: Kinase Profiler lipid kinase relative activity; type: biochemical; conditions: X-370 10 μM, compared to DMSO control
# T2 construct: purchased Millipore (Kinase Profiler Services, United Kingdom)
# T2 sequence (O75747 whole entry, species assumed): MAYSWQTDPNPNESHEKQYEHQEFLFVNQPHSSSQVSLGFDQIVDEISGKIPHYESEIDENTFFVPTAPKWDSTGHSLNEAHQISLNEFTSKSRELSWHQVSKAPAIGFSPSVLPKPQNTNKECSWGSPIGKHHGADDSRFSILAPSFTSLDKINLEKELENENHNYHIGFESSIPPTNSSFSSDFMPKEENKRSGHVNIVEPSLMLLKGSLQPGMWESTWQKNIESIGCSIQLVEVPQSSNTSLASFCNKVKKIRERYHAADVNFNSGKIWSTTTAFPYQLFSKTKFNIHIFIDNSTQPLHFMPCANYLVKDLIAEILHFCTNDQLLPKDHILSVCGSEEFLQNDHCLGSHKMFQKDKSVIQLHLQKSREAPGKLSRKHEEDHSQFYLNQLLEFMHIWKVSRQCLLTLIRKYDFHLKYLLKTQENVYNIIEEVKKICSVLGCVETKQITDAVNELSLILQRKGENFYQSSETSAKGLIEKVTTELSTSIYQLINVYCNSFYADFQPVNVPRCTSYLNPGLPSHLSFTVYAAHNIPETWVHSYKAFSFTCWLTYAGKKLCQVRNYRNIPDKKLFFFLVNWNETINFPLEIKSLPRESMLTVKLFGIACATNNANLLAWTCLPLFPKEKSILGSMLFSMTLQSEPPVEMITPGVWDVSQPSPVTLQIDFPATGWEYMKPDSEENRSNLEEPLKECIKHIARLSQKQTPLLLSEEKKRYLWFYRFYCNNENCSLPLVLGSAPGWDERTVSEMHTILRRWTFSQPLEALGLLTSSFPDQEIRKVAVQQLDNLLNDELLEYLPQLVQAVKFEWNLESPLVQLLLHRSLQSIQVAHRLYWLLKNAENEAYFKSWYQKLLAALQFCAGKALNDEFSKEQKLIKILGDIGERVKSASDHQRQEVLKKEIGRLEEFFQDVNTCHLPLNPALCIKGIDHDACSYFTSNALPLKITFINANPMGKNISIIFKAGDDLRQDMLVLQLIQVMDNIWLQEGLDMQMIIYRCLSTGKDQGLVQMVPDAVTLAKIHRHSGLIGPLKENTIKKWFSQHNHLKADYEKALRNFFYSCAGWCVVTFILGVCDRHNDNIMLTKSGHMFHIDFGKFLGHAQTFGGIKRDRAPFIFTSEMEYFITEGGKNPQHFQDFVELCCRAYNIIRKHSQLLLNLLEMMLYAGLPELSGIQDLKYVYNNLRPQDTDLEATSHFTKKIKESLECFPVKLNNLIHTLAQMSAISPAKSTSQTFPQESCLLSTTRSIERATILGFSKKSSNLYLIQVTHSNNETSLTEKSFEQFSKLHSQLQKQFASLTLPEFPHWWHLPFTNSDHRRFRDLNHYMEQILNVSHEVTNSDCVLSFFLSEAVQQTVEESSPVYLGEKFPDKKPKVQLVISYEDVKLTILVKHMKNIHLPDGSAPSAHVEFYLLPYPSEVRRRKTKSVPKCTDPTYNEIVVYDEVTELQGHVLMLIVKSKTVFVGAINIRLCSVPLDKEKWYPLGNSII
# Experimental: as §1, §2
# PIP4K2α = biological target: T3, PIP4K2α (Homo sapiens, UniProt P48426); assay: Kinase Profiler lipid kinase relative activity; type: biochemical; conditions: X-370 10 μM, compared to DMSO control
# T3 construct: purchased Millipore (Kinase Profiler Services, United Kingdom)
# T3 sequence (P48426 whole entry): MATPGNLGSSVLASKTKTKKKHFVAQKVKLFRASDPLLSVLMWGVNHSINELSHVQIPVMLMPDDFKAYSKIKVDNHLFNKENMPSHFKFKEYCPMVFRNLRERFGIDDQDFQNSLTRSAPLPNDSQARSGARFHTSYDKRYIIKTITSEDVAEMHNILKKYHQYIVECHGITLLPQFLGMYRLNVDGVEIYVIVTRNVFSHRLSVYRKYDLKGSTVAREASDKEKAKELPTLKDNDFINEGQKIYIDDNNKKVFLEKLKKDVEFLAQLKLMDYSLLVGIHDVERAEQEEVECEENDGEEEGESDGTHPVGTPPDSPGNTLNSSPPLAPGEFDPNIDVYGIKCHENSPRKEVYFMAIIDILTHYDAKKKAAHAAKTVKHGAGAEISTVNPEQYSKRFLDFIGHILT
# Experimental: as §1, §2
# PIP5K1α = biological target: T4, PIP5K1α (Homo sapiens, UniProt Q99755); assay: Kinase Profiler lipid kinase relative activity; type: biochemical; conditions: X-370 10 μM, compared to DMSO control
# T4 construct: purchased Millipore (Kinase Profiler Services, United Kingdom)
# T4 sequence (Q99755 whole entry, species assumed): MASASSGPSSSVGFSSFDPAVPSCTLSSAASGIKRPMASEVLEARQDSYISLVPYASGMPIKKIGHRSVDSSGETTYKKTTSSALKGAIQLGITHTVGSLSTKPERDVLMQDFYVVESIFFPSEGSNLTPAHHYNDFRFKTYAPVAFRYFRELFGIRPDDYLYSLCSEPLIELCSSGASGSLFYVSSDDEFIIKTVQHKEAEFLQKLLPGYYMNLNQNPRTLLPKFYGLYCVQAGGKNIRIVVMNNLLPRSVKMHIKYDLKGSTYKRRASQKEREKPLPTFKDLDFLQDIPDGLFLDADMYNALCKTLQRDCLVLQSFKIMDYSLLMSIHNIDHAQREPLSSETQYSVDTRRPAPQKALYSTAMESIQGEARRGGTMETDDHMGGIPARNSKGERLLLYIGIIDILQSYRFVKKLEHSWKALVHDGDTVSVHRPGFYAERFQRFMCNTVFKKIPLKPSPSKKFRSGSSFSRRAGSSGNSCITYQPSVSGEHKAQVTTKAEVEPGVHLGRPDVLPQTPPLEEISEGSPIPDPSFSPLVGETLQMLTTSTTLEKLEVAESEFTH
# Experimental: as §1, §2
# PIP5K1γ = biological target: T5, PIP5K1γ (Homo sapiens, UniProt O60331); assay: Kinase Profiler lipid kinase relative activity; type: biochemical; conditions: X-370 10 μM, compared to DMSO control
# T5 construct: purchased Millipore (Kinase Profiler Services, United Kingdom)
# T5 sequence (O60331 whole entry, species assumed): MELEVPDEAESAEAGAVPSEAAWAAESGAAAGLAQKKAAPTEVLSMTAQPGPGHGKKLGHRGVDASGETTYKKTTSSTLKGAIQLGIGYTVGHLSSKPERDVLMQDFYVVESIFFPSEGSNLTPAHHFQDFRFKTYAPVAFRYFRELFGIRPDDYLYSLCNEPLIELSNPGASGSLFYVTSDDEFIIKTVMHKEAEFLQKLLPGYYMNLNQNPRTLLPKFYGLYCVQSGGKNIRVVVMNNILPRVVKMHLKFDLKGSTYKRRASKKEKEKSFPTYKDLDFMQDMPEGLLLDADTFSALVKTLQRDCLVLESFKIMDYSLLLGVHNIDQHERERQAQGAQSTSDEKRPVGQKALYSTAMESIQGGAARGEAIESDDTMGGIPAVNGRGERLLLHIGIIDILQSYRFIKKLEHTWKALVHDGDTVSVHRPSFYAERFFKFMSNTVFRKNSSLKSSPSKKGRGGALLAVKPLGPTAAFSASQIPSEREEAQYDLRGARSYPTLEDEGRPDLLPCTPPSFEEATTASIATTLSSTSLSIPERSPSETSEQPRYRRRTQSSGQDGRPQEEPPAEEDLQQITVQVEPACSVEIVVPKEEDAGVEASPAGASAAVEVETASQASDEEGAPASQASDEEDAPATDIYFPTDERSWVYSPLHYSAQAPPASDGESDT
# Experimental: as §1, §2
# Raji cells = assay: Annexin V-FITC/PI apoptosis assay (FACS); type: cell-based, human; conditions: 72 h
# Description: Figure 3 PI3Kδ inhibition led to blockade of B cell leukemia cells proliferation via induction of cell cycle arrest and apoptosis Raji cells treated with X-370 for indicated times and at serial diluted concentrations were subjected to Annexin V-FITC/PI staining (A) and PI staining (B) and FACS analysis to show cell apoptosis and cell cycle distribution respectively. (C) X-370 inhibited proliferation of human leukemia primary cells. Freshly isolated human primary mononuclear cells from bone marrow samples of patients were treated with X-370 for 72 h and cell viability was assayed using CCK-8 assay. IC50s of each sample were plotted where 10 μM was assigned to specimens with IC50 >10 μM. Each symbol represents an individual patient sample. […]
# Apoptosis was measured with annexin V–fluorescein isothiocyanate (FITC) /Propidium iodide (PI) kit (KeyGEN Biotech, Nanjing, China) as previously described. Fluorescence was acquired with a FACSCalibur instrument (BD Biosciences, CA) and analyzed using BD CellQuest Pro software.
# T1 sequence (O00443 whole entry, species assumed): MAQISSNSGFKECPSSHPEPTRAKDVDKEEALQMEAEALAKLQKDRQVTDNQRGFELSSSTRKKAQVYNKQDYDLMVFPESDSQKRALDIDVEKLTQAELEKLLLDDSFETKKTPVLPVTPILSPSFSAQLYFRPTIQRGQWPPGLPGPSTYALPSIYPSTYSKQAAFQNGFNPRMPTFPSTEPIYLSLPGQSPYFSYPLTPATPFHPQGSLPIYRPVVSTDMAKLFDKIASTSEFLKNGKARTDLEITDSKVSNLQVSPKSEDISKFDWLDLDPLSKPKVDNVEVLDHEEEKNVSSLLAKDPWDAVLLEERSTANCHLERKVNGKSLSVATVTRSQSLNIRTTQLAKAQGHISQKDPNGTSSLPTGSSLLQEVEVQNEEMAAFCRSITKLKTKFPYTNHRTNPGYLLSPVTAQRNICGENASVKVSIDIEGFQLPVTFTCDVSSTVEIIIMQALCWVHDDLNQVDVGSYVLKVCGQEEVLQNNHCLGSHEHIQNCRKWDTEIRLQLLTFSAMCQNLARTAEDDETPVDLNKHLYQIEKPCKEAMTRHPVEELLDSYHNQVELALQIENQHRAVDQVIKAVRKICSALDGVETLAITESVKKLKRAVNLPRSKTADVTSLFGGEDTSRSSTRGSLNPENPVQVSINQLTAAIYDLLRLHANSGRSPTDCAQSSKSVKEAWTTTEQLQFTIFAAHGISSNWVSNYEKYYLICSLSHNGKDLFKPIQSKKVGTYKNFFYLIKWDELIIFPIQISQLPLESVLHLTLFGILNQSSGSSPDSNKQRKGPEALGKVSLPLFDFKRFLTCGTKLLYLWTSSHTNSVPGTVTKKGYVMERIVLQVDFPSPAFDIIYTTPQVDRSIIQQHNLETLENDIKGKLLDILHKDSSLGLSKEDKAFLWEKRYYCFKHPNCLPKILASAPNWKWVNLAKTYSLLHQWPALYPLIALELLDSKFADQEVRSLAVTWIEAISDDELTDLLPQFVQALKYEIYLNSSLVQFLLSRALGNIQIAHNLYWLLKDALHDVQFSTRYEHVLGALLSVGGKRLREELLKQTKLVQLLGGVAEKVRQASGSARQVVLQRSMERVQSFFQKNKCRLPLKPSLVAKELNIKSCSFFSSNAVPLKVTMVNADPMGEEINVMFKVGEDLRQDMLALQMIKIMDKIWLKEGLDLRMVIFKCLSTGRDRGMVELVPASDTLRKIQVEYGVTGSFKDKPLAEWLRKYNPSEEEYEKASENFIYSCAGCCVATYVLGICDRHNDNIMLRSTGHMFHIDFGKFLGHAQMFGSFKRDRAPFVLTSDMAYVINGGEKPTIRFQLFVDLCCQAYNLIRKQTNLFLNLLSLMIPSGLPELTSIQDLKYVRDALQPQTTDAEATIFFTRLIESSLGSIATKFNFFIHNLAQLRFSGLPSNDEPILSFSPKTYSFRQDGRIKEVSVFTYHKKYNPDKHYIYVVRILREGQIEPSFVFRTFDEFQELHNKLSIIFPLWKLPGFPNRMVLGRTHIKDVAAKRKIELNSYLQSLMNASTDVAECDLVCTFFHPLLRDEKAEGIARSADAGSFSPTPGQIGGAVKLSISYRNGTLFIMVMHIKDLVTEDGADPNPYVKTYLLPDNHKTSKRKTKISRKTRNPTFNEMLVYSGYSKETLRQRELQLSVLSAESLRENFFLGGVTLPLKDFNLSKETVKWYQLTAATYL
compound,measurement,setting,value
O=C(N1CCCC1)N1CCC(n2cnc3c(-n4c(C(F)F)nc5ccccc54)nc(N4CCOCC4)nc32)CC1 [X-370],activity at 10 µM,PI3KC2α,55%
same,activity at 10 µM,PI3KC2γ,63%
same,activity at 10 µM,PIP4K2α,105%
same,activity at 10 µM,PIP5K1α,100%
same,activity at 10 µM,PIP5K1γ,103%
same,cells that underwent apoptosis,Raji cells; 10 μM,about 28%
same,concentration at which apoptotic cells were detectable,Raji cells,≥ 5 µM
